The results in this text go back to ChEMBL document CHEMBL4371007, “Biased Ligands of G Protein-Coupled Receptors (GPCRs): Structure-Functional Selectivity Relationships (SFSRs) and Therapeutic Potential” (J Med Chem, 2018).

One may read the EC50 as the concentration needed to bring the measured effect to its halfway point. The pKb is the negative decadic logarithm of the Kb, by convention in mol/L. Read a low pKb as a high Kb. By Emax is commonly meant the size of the effect at its maximum, as opposed to the concentration needed.

SMILES strings stand for the structures. Where a SMILES comes first, the peptide text is derived from it. Bridges are numbered along the chain shown (N, C = ends). [ ]: non-standard residue; d: D form. The star is where a group is joined. X1 = C[C@@H](NC(=O)[C@@H]1CCCN1C(=O)[C@H](Cc1cnc[nH]1)NC[C@H](CCCCN)N*)C(=O)O; Sar = CNCC(=O)O

Assay [1] concerns the target T1, Kappa-type opioid receptor (Rattus norvegicus, UniProt P34975). The assay is described as follows: Agonist activity at GFP-tagged rat kappa opioid receptor expressed in HEK293 cells assessed as increase in beta-arrestin mediated p38 phosphorylation after 5 mins by Western blot analysis. It is filed as cell-based. On the technique in general: A western blot detects proteins with antibodies after separation by electrophoresis.

In assay [2] the target is T1, Kappa-type opioid receptor. The assay is described as follows: Agonist activity at GFP-tagged rat kappa opioid receptor expressed in HEK293 cells assessed as increase in ERK1/2 phosphorylation after 5 mins by Western blot analysis. It is filed as cell-based.
Assay [3] addresses T2, Apelin receptor (Homo sapiens, UniProt P35414).
T2 sequence (P35414 whole entry): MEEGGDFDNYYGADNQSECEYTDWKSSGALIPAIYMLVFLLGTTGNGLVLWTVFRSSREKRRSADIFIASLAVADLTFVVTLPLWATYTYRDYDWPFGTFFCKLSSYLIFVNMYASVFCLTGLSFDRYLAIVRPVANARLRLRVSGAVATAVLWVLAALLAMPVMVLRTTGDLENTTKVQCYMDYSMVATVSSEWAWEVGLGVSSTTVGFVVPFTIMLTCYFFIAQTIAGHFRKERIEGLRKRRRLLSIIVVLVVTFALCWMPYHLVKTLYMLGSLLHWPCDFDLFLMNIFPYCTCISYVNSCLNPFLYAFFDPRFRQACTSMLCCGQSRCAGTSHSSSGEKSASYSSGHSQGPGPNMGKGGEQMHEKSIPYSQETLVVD
The assay is described as follows: Agonist activity at GFP10 tagged human APJ receptor expressed in HEK293 cells harboring Rluc2-beta-arrestin1 assessed as increase in beta-arrestin1 recruitment after 30 mins by BRET-based luciferase reporter gene assay. In kind it is cell-based.

Assay [4] addresses T2, Apelin receptor. The assay is described as follows: Agonist activity at GFP10 tagged human APJ receptor expressed in HEK293 cells harboring Rluc2-Galphai1/GFP10-Ggamma/Gbeta1 after 5 mins by BRET assay. In kind it is cell-based. Background: In BRET a luciferase serves as donor, and the signal depends on an acceptor being close.
Assay [5] deals with T2, Apelin receptor. The assay is described as follows: Agonist activity at human APJ receptor expressed in HEK293 cells harboring Rluc2-beta-arrestin2 assessed as increase in beta-arrestin2 recruitment after 30 mins by BRET-based luciferase reporter gene assay. It is filed as cell-based. Background: Arrestin recruitment assays detect the binding of arrestin to an activated receptor.

In assay [6] the target is T2, Apelin receptor. The assay is described as follows: Agonist activity at GFP10 tagged human APJ receptor expressed in HEK293 cells harboring Rluc2-Galpha0A/GFP10-Ggamma/Gbeta1 after 5 mins by BRET assay. In kind it is cell-based.
For the next assay, the system named is CHO. Put plainly: Cytoprotection against glutamate-induced cell death in CHO cells assessed as increase in cell viability by colorimetric assay. It is filed as functional, cell-based. The note with it: Cricetulus griseus.
Assay [7] concerns the target T3, Metabotropic glutamate receptor 5 (Rattus norvegicus, UniProt P31424). Put plainly: Positive allosteric modulation of rat mGlu5 receptor expressed in HEK293 cells assessed as increase in calcium mobilization. In kind it is functional, cell-based.
Assay [8] has as its target T4, Endothelin receptor type B (Homo sapiens) (UniProt P24530).
T4 sequence (whole entry): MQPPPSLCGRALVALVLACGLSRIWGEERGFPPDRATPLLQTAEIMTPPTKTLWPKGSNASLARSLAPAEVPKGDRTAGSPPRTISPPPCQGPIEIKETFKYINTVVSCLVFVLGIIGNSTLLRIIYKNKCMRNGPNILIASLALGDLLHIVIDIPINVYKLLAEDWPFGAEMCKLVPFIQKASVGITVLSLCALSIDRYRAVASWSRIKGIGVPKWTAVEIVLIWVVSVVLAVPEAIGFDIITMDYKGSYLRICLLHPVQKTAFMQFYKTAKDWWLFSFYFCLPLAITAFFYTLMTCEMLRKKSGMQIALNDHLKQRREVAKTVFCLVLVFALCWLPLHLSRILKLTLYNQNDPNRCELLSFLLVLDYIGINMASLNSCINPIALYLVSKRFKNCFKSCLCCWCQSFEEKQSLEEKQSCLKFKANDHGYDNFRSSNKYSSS

Assay [9] has as its target T5, Endothelin-1 receptor (Homo sapiens) (UniProt P25101).
T5 sequence (whole entry): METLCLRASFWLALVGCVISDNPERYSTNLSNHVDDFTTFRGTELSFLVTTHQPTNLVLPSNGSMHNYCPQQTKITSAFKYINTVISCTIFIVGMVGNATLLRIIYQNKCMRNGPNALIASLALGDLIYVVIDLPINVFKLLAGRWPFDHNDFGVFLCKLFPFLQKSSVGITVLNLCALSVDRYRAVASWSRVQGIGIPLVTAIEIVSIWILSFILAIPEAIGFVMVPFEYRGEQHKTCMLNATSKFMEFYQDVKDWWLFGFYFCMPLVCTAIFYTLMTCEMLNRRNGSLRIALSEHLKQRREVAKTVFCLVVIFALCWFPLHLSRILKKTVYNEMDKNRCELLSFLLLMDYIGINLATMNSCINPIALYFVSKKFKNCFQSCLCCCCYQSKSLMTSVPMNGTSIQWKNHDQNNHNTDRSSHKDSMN

Assay [10] concerns the target T6, Type-1 angiotensin II receptor (Homo sapiens, UniProt P30556).
T6 sequence (P30556 whole entry): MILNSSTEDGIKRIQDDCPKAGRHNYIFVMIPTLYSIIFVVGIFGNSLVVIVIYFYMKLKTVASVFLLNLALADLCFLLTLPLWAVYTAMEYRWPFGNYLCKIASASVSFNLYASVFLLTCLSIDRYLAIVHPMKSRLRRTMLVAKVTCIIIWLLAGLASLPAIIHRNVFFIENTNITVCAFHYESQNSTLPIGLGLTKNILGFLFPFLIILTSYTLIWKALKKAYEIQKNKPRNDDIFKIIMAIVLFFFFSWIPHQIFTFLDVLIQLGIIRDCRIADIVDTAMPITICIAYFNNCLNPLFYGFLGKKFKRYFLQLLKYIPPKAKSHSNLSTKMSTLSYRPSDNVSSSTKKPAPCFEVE
Put plainly: Agonist activity at human AT1 receptor assessed as increase in beta-arrestin recruitment by chemiluminescent assay.

Assay [11] deals with Metabotropic glutamate receptor 5 (Homo sapiens, UniProt P41594). Put plainly: Agonist activity at mGlu5 receptor (unknown origin) expressed in CHO cells assessed as increase in Gq-mediated PI hydrolysis after 45 mins by yttrium scintillation proximity assay. In kind it is cell-based.
Metabotropic glutamate receptor 5 (Homo sapiens, UniProt P41594), sequence (P41594 whole entry, the tested form may be a part): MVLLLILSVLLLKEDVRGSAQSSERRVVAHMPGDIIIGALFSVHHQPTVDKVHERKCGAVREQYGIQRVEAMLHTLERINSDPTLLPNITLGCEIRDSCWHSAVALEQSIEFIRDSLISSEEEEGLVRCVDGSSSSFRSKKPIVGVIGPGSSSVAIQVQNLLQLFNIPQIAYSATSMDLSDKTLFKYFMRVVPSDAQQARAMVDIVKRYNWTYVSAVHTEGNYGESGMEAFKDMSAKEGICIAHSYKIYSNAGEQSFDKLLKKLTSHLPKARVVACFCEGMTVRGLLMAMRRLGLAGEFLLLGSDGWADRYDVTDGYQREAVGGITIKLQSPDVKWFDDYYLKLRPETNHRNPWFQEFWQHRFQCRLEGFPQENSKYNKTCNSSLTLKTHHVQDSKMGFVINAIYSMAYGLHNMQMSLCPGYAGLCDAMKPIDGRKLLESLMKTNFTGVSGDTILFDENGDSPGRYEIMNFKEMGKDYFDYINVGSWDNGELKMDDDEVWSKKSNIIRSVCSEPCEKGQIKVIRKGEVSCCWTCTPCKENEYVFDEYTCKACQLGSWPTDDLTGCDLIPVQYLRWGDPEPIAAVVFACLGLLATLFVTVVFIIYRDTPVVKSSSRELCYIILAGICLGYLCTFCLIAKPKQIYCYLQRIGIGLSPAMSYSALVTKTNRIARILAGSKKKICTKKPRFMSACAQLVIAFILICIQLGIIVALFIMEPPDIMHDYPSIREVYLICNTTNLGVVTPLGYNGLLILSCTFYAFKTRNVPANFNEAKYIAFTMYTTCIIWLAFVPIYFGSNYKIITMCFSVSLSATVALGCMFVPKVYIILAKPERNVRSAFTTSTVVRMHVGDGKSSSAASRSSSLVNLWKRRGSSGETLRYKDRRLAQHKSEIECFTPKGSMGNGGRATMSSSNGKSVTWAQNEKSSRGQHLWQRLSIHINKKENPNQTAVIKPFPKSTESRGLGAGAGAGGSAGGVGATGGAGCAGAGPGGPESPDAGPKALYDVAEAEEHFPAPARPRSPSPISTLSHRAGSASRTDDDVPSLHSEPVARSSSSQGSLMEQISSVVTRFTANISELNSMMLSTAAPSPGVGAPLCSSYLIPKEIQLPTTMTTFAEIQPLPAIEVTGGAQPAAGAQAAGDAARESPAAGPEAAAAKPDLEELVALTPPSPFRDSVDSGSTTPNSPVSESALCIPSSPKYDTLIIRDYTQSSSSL
Assay [12] concerns the target T7, D(2) dopamine receptor (Homo sapiens, UniProt P14416). Put plainly: Agonist activity at human dopamine D2long receptor (unknown origin) expressed in HEK293T cells co-expressing TEV fused-beta-Arrestin2 and GRK2 assessed as increase in beta-arrestin-2 recruitment after overnight incubation by Tango assay. It is filed as cell-based.
Assay [13] concerns the target T7, D(2) dopamine receptor. The assay is described as follows: Agonist activity at human dopamine D2long receptor (unknown origin) expressed in HEK293T cells co-expressing TEV fused-beta-Arrestin2 and GRK2 assessed as increase in beta-arrestin-2 recruitment at 1 uM after overnight incubation by Tango assay relative to control. In kind it is cell-based.
The target of assay [14] is T7, D(2) dopamine receptor. The assay is described as follows: Ratio of EC50 for dopamine D2 receptor (unknown origin) expressed in HEK293T cells co-expressing luciferase based cAMP biosensor assessed as inhibition of forskolin-mediated cAMP accumulation to EC50 for human dopamine D2long receptor (unknown origin) expressed in HEK293T cells co-expressing TEV fused-beta-Arrestin2 and GRK2 assessed as increase in beta-arrestin-2 recruitment. It is filed as functional, cell-based.

Assay [15] concerns the target T7, D(2) dopamine receptor. The assay is described as follows: Agonist activity at dopamine D2 receptor (unknown origin) expressed in HEK293T cells co-expressing luciferase based cAMP biosensor assessed as inhibition of forskolin-mediated cAMP accumulation at 1 uM after 15 mins by microbeta luminescence counting assay relative to control. In kind it is functional, cell-based.

The target in assay [16] is T7, D(2) dopamine receptor. Put plainly: Agonist activity at dopamine D2 receptor (unknown origin) expressed in HEK293T cells co-expressing luciferase based cAMP biosensor assessed as inhibition of forskolin-mediated cAMP accumulation after 15 mins by microbeta luminescence counting assay. In kind it is functional, cell-based.
The target in assay [17] is T8, Adenosine receptor A1 (Homo sapiens) (UniProt P30542).
T8 sequence (whole entry): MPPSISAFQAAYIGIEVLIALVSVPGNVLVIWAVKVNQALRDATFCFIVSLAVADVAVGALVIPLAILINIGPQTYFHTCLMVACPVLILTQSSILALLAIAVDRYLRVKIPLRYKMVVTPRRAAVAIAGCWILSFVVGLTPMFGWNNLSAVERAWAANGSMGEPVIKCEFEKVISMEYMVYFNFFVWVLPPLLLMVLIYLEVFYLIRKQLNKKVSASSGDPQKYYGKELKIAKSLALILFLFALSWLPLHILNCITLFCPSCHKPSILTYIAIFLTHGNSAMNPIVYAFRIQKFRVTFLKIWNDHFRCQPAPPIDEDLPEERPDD
Put plainly: Agonist activity at adenosine A1 receptor (unknown origin) expressed in FlpIn-CHO cells assessed as increase in ERK1/2 phosphorylation. It is filed as cell-based.

Assay [18] has as its target T8, Adenosine receptor A1 (Homo sapiens).
Assay [19] concerns the target T2, Apelin receptor. The assay is described as follows: Agonist activity at human APJ receptor assessed as increase in beta-arrestin recruitment.
In assay [20] the target is T2, Apelin receptor. The assay is described as follows: Agonist activity at human APJ receptor by saphenous vein contraction assay.
Assay [21] addresses T2, Apelin receptor. Put plainly: Induction of human APJ receptor internalization by cell based assay.
Assay [22] concerns the target T3, Metabotropic glutamate receptor 5. Put plainly: Positive allosteric modulation of rat mGlu5 receptor expressed in HEK293 cells assessed as increase in calcium mobilization after 60 secs in presence of glutamate by Fluo-4 AM dye-based fluorescence assay. It is filed as functional, cell-based.

T7 sequence (P14416 whole entry, the tested form may be a part): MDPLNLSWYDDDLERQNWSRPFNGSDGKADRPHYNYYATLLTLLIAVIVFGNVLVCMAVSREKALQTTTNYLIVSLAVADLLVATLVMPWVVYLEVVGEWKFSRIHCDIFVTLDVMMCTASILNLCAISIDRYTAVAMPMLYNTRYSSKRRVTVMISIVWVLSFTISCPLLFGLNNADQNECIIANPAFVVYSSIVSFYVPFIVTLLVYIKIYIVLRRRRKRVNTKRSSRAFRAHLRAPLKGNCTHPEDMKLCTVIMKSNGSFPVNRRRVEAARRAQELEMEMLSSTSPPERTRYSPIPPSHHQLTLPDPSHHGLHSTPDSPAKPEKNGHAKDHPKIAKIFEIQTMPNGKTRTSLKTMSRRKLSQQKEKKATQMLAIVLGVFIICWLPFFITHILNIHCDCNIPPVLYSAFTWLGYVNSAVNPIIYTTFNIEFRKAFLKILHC
T3 sequence (P31424 whole entry): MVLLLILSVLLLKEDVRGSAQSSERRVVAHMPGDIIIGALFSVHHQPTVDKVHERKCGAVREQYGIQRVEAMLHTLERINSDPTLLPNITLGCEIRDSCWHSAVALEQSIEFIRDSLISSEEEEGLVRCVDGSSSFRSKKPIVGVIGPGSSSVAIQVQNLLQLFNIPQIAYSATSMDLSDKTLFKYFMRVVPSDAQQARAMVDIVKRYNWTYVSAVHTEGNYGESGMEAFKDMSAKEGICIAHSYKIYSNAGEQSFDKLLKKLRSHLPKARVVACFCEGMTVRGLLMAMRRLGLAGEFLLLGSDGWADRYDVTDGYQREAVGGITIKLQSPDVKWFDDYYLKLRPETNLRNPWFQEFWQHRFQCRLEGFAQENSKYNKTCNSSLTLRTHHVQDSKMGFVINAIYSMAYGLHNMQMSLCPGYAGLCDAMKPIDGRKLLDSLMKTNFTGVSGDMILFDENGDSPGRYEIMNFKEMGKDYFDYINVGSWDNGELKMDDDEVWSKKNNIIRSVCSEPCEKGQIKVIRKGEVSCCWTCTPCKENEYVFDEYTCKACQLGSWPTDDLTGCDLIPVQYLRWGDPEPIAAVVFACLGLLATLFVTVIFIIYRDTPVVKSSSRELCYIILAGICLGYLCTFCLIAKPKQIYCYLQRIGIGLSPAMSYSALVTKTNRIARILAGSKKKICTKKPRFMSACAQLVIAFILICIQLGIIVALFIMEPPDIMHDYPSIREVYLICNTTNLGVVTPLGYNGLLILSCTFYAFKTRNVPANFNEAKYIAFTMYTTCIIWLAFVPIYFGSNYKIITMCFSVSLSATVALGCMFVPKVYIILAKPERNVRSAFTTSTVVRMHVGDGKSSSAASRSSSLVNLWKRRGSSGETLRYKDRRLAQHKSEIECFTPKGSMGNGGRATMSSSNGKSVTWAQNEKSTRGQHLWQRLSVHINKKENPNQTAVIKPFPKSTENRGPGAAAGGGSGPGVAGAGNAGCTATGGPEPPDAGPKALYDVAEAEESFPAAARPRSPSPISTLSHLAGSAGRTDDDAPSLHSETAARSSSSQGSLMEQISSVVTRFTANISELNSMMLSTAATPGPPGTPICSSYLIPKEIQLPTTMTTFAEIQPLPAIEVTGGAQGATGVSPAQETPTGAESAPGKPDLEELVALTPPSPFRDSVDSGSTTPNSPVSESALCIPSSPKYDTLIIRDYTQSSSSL
T1 sequence (P34975 whole entry): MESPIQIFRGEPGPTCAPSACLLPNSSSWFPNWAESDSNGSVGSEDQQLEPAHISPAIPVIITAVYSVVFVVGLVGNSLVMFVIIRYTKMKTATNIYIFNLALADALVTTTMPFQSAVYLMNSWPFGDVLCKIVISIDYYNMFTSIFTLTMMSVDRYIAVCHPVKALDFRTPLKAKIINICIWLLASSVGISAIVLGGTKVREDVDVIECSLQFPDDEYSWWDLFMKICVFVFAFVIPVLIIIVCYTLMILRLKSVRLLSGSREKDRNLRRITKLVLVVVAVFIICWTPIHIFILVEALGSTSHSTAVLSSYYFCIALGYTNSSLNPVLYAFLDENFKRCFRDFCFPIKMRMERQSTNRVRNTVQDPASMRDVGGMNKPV

In the case of `CN(C(=O)/C=C/c1ccoc1)[C@@H]1CC[C@@]2(O)[C@H]3Cc4ccc(O)c5c4[C@@]2(CCN3CC2CC2)[C@H]1O5` [NALFURAFINE], the concentration for a half-maximal effect (EC50) in assay [1] came out at 5.2 nM; in assay [2] it was 0.5 nM.

Regarding `CC(C)C[C@H](NC(=O)[C@H](CCCCN)NC(=O)[C@@H]1CCCN1C(=O)[C@@H](N)CCCCN)C(=O)N[C@@H](CO)C(=O)N[C@@H]1CC=CCC[C@@H](C(=O)N[C@@H](Cc2ccc(OCc3ccccc3)cc2)C(=O)O)NC(=O)[C@@H]2CCCN2C(=O)CNC(=O)[C@H](CCCCN)NC1=O`, the concentration giving a half-maximal response (EC50) at Apelin receptor [3] is above 10000 nM; at Apelin receptor [4] it was 56 nM; on Apelin receptor [5] it was above 10000 nM; at Apelin receptor [6] it was 50 nM.

For `N[C@@H](CCC(=O)O)C(=O)O` [GLUTAMIC ACID], the EC50 in the assay on CHO was found to be 153000 nM.

Consider `O=C(c1ccc(F)cc1)N1CCc2nc(COc3ccccc3)oc2C1`, for which the half-maximal effective concentration (EC50) in [7] stood at 235 nM.

On to `COc1ccccc1Oc1c(NS(=O)(=O)c2ccc(C(C)(C)C)cc2)nc(-c2ncccn2)nc1OCCO`, for which the negative logarithm of the Kb (pKb) in [8] was 6.15; in [9] it was 8.01.

With `CC[C@H](C)[C@H](NC(=O)[C@@H](NC(=O)[C@H](CCCNC(=N)N)NC(=O)CNC)C(C)C)C(=O)N[C@@H](CCCCN)CN[C@@H](Cc1cnc[nH]1)C(=O)N1CCC[C@H]1C(=O)N[C@H](C)C(=O)O` (H-[Sar]RVI-X1), the EC50 in assay [10] was determined as 17 nM.

Regarding `N[C@@H](Cn1oc(=O)[nH]c1=O)C(=O)O` [QUISQUALATE], the EC50 in [11] worked out at 630 nM.

On to `Cc1cc2c(N3CCN(CCCCOc4ccc5c(c4)NC(=O)CC5)CC3)cccc2n1C`, for which the EC50 at D(2) dopamine receptor [12] stood at 2.9 nM; at D(2) dopamine receptor [16], 23 nM. Besides, the maximal effect (Emax) on D(2) dopamine receptor [13] is 78%; on D(2) dopamine receptor [15], 60%. The Ratio EC50 on D(2) dopamine receptor [14] was 20.

For the compound `C[C@H](Cc1ccccc1)Nc1ncnc2c1ncn2[C@@H]1O[C@H](CO)[C@@H](O)[C@H]1O`, the log(Tau/KA) turned out to be 9.5 in [17] and 8.96 in [18].

As to `CSCC[C@H](NC(=O)[C@@H]1CCCN1C(=O)CNC(=O)[C@H](CCCCN)NC(=O)[C@H](Cc1cnc[nH]1)NC(=O)[C@@H]1CSSC[C@H](N)C(=O)N[C@@H](CCCNC(=N)N)C(=O)N2CCC[C@H]2C(=O)N[C@@H](CCCNC(=N)N)C(=O)N[C@@H](CC(C)C)C(=O)N1)C(=O)N1CCC[C@H]1C(=O)N[C@@H](Cc1ccccc1)C(=O)O` (H-CRPRLCHKGPMPF-OH; disulfide 1-6), the EC50 at Apelin receptor [19] is 2140 nM; on Apelin receptor [20] it was 0.288 nM; at Apelin receptor [21], 692 nM.

Regarding `O=C(Nc1ccc(Cl)cc1CN1C(=O)c2cccc(F)c2C1=O)c1ccccn1`, the 50% effective concentration (EC50) in [22] stood at 214 nM.
